# Reference: patent US9302999B2, “Substituted triazoles as herbicides” (E. I. DU PONT DE NEMOURS AND COMPANY, priority 2012, dated 2016)
# Tests used:
# Assay type in all cases: in vivo
# wild oat (Avena fatua) = assay: Test C pre-/postemergence: wild oat; details: Postemergence
# Method in brief: (§1)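 Preemergence on seeds in loam/sand, postemergence on 2–18 cm (1–4-leaf) plants in peat-based medium; compounds in non-phytotoxic solvent with surfactant. After 13–15 days in greenhouse, visual rating versus controls, 0 (no effect) to 100 (complete control).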
# [1] = tested on: chickweed (common chickweed, Stellaria media); assay: Test C postemergence: chickweed
# Method in brief: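 Pot-grown plants in peat/vermiculite medium sprayed postemergence at 2–18 cm height (1- to 4-leaf stage). Kept in greenhouse 13 to 15 days, then visually rated against untreated controls on a 0–100 scale (0 = no effect, 100 = complete control).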
# corn (Zea mays) [2] = assay: Test C pre-/postemergence: corn
# Method in brief: as §1
# [3] = tested on: large crabgrass (Digitaria sanguinalis); assay: Test C pre-/postemergence: large crabgrass
# Method in brief: as §1
# [4] = tested on: ragweed (common ragweed, Ambrosia elation); assay: Test C pre-/postemergence: ragweed
# Method in brief: as §1
# kochia (Kochia scoparia) = assay: Test C pre-/postemergence: kochia; details: Postemergence
# Method in brief: as §1
# [5] = tested on: velvetleaf (Abutilon theophrasti); assay: Test C pre-/postemergence: velvetleaf
# Method in brief: as §1
# [6] = tested on: ducksalad (Heteranthera limosa); assay: Test B flooded paddy: ducksalad; details: Flood; 250 g ai/ha; applied to paddy water at 2-leaf stage; visually evaluated after 13 to 15 days
# Method in brief: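 Response scored visually, 0–100 relative to controls, 13–15 days after the compound was applied into paddy water; plants were at the 2-leaf stage in pots kept flooded to 3 cm.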
# [7] = tested on: nutsedge, yellow (yellow nutsedge, Cyperus esculentus); assay: Test C pre-/postemergence: nutsedge, yellow
# Method in brief: as §1
# corn (Zea mays) [8] = assay: Test A pre-/postemergence: corn
# Method in brief: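 Whole-plant greenhouse assay in loam/sand. Preemergence directed soil spray plus simultaneous postemergence spray (one- to two-leaf stage, 2–10 cm). Rated visually ~10 days later, 0 = no effect, 100 = complete control.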
# [9] = tested on: foxtail, giant (giant foxtail, Setaria faberii); assay: Test C pre-/postemergence: foxtail, giant
# Method in brief: as §1
# [10] = 31 g ai/ha, scale 0 to 100 (0 no effect, 100 complete control)
# [11] = 62 g ai/ha, scale 0 to 100 (0 no effect, 100 complete control)
# [12] = 125 g ai/ha, scale 0 to 100, 0 no effect, 100 complete control
# [13] = Postemergence, 31 g ai/ha, scale 0 to 100 (0 no effect, 100 complete control)
# [14] = Postemergence, 62 g ai/ha, scale 0 to 100 (0 no effect, 100 complete control)
# [15] = Postemergence, 125 g ai/ha, scale 0 to 100, 0 no effect, 100 complete control
# [16] = Postemergence, 250 g ai/ha, scale 0 to 100
# [17] = Postemergence, 125 g ai/ha, 0 to 100 scale, 0 is no effect, 100 is complete control
# [18] = 250 g ai/ha, scale 0 to 100 (0 no effect, 100 complete control)
# [19] = Preemergence, 31 g ai/ha, scale 0 (no effect) to 100 (complete control)
# [20] = Preemergence, 62 g ai/ha, scale of 0 to 100, 0 is no effect, 100 is complete control
# [21] = Preemergence, 125 g ai/ha, scale 0 to 100, 0 no effect, 100 complete control
# [22] = Preemergence, 250 g ai/ha, scale 0 to 100, 0 no effect, 100 complete control
# [23] = Postemergence, 250 g ai/ha, scale 0 to 100 (0 no effect, 100 complete control)
smiles,measurement,setting,value
FC(F)(F)c1ccc(-n2nc(Cl)c(Cc3ccnc(C(F)(F)F)c3)n2)cc1 [Compound 28],"Plant response rating, Oat, Wild",wild oat (Avena fatua); [10],10
same,"Plant response rating, Oat, Wild",wild oat (Avena fatua); [11],15
same,"Plant response rating, Oat, Wild",wild oat (Avena fatua); [12],40
same,"Plant response rating, Oat, Wild","wild oat (Avena fatua); 250 g ai/ha, scale 0 to 100",70
same,"Plant response rating, Chickweed",[1]; [10],30
same,"Plant response rating, Chickweed",[1]; [11],55
same,"Plant response rating, Chickweed",[1]; [12],95
same,"Plant response rating, Chickweed","[1]; 250 g ai/ha, scale 0 to 100",100
same,"Plant response rating, Corn",corn (Zea mays) [2]; [13],15
same,"Plant response rating, Corn",corn (Zea mays) [2]; [14],20
same,"Plant response rating, Corn",corn (Zea mays) [2]; [15],25
same,"Plant response rating, Corn",corn (Zea mays) [2]; [16],25
same,"Plant response rating, Crabgrass, Large",[3]; [13],10
same,"Plant response rating, Crabgrass, Large",[3]; [14],15
same,"Plant response rating, Crabgrass, Large",[3]; [15],20
same,"Plant response rating, Crabgrass, Large",[3]; [16],25
same,"Plant response rating, Ragweed",[4]; [13],35
same,"Plant response rating, Ragweed",[4]; [14],60
same,"Plant response rating, Ragweed",[4]; [16],85
same,"Plant response rating, Kochia",kochia (Kochia scoparia); [10],40
same,"Plant response rating, Kochia",kochia (Kochia scoparia); [11],65
same,"Plant response rating, Kochia",kochia (Kochia scoparia); [12],75
same,"Plant response rating, Kochia","kochia (Kochia scoparia); 250 g ai/ha, scale 0 to 100",95
same,"Plant response rating, Velvetleaf",[5]; [13],20
same,"Plant response rating, Velvetleaf",[5]; [14],25
same,"Plant response rating, Velvetleaf",[5]; [15],35
same,"Plant response rating, Velvetleaf",[5]; [16],50
same,"Plant response rating, Ducksalad (0 to 100 scale, 0 is no effect, 100 is complete control)",[6],95
same,"Plant response rating, Nutsedge, Yellow",[7]; [13],5
same,"Plant response rating, Nutsedge, Yellow",[7]; [14],5
same,"Plant response rating, Nutsedge, Yellow",[7]; [15],15
same,"Plant response rating, Nutsedge, Yellow",[7]; [16],25
same,Corn plant response rating,corn (Zea mays) [8]; [17],30
same,Corn plant response rating,"corn (Zea mays) [8]; Postemergence, 500 g ai/ha, visual rating on 0 to 100 scale (0 no effect, 100 complete control), approximately ten days",50
same,"Plant response rating, Corn","corn (Zea mays) [8]; Preemergence, 125 g ai/ha, 0 to 100 scale (0 no effect, 100 complete control)",20
same,"Plant response rating, Corn","corn (Zea mays) [8]; Preemergence, 500 g ai/ha, 0 to 100 scale, 0 is no effect, 100 is complete control",20
same,"Plant response rating, Foxtail, Giant",[9]; [13],35
same,"Plant response rating, Foxtail, Giant",[9]; [14],35
same,"Plant response rating, Foxtail, Giant",[9]; [15],35
same,"Plant response rating, Foxtail, Giant",[9]; [16],50
CCCc1nn(-c2ccc(C(F)(F)F)cc2)nc1Oc1ccnc(C(F)(F)F)c1 [Compound 170],"Plant response rating, Oat, Wild",wild oat (Avena fatua); [10],30
same,"Plant response rating, Oat, Wild",wild oat (Avena fatua); [11],65
same,"Plant response rating, Oat, Wild",wild oat (Avena fatua); [12],85
same,"Plant response rating, Oat, Wild",wild oat (Avena fatua); [18],90
same,"Plant response rating, Chickweed",[1]; [10],75
same,"Plant response rating, Chickweed",[1]; [11],95
same,"Plant response rating, Chickweed","[1]; 250 g ai/ha, scale 0 to 100",95
same,"Plant response rating, Corn",corn (Zea mays) [2]; [13],15
same,"Plant response rating, Corn",corn (Zea mays) [2]; [14],25
same,"Plant response rating, Corn",corn (Zea mays) [2]; [15],30
same,"Plant response rating, Corn",corn (Zea mays) [2]; [16],30
same,"Plant response rating, Corn",corn (Zea mays) [2]; [19],5
same,"Plant response rating, Corn",corn (Zea mays) [2]; [20],10
same,"Plant response rating, Corn",corn (Zea mays) [2]; [21],15
same,"Plant response rating, Corn",corn (Zea mays) [2]; [22],60
same,"Plant response rating, Crabgrass, Large",[3]; [13],30
same,"Plant response rating, Crabgrass, Large",[3]; [14],30
same,"Plant response rating, Crabgrass, Large",[3]; [15],80
same,"Plant response rating, Crabgrass, Large",[3]; [16],90
same,"Plant response rating, Crabgrass, Large",[3]; [19],100
same,"Plant response rating, Crabgrass, Large",[3]; [20],100
same,"Plant response rating, Crabgrass, Large",[3]; [21],100
same,"Plant response rating, Crabgrass, Large",[3]; [22],100
same,"Plant response rating, Ragweed",[4]; [13],85
same,"Plant response rating, Ragweed",[4]; [14],85
same,"Plant response rating, Ragweed",[4]; [15],90
same,"Plant response rating, Ragweed",[4]; [23],90
same,"Plant response rating, Ragweed",[4]; [19],5
same,"Plant response rating, Ragweed",[4]; [20],60
same,"Plant response rating, Ragweed",[4]; [21],75
same,"Plant response rating, Ragweed",[4]; [22],95
same,"Plant response rating, Kochia",kochia (Kochia scoparia); [10],90
same,"Plant response rating, Kochia",kochia (Kochia scoparia); [11],90
same,"Plant response rating, Kochia",kochia (Kochia scoparia); [12],90
same,"Plant response rating, Kochia",kochia (Kochia scoparia); [18],90
same,"Plant response rating, Velvetleaf",[5]; [13],75
same,"Plant response rating, Velvetleaf",[5]; [14],85
same,"Plant response rating, Velvetleaf",[5]; [15],85
same,"Plant response rating, Velvetleaf",[5]; [23],90
same,"Plant response rating, Velvetleaf",[5]; [19],60
same,"Plant response rating, Velvetleaf",[5]; [20],100
same,"Plant response rating, Velvetleaf",[5]; [21],100
same,"Plant response rating, Velvetleaf",[5]; [22],100
same,"Plant response rating, Ducksalad (0 to 100 scale, 0 is no effect, 100 is complete control)",[6],35
same,"Plant response rating, Nutsedge, Yellow",[7]; [13],5
same,"Plant response rating, Nutsedge, Yellow",[7]; [14],5
same,"Plant response rating, Nutsedge, Yellow",[7]; [15],5
same,"Plant response rating, Nutsedge, Yellow",[7]; [23],10
same,"Plant response rating, Nutsedge, Yellow",[7]; [19],0
same,"Plant response rating, Nutsedge, Yellow",[7]; [20],5
same,"Plant response rating, Nutsedge, Yellow",[7]; [22],5
same,"Plant response rating, Corn",corn (Zea mays) [8]; [17],30
same,Corn plant response rating,"corn (Zea mays) [8]; Postemergence, 500 g ai/ha, 0 to 100 scale, 0 is no effect, 100 is complete control",50
same,"Plant response rating, Corn","corn (Zea mays) [8]; Preemergence, 125 g ai/ha, 0 to 100 scale where 0 is no effect and 100 is complete control",30
same,"Plant response rating, Corn","corn (Zea mays) [8]; Preemergence, 500 g ai/ha, 0 to 100 scale (0 no effect, 100 complete control)",40
same,"Plant response rating, Foxtail, Giant",[9]; [13],55
same,"Plant response rating, Foxtail, Giant",[9]; [14],80
same,"Plant response rating, Foxtail, Giant",[9]; [15],98
same,"Plant response rating, Foxtail, Giant",[9]; [16],98
same,"Plant response rating, Foxtail, Giant",[9]; [19],98
same,"Plant response rating, Foxtail, Giant",[9]; [20],100
same,"Plant response rating, Foxtail, Giant",[9]; [21],100
same,"Plant response rating, Foxtail, Giant",[9]; [22],100
